Earlier results on 1 molecule are cited in patent US20030236285A1, “Stabilized pharmaceutical compositions containing benzimidazole compounds” (priority 2002, published 2003).

The conditions of this series: pH higher than 7.

As for `Cc1c(OCC(F)(F)F)ccnc1C[S+]([O-])c1nc2ccccc2[nH]1` (stereo not shown) [lansoprazole], the rate of degradation result is recorded as “reduced to negligible”.
